The assay addresses AKT1 (Homo sapiens, UniProt P31749). Briefly: Biochemical assay for inhibitors of AKT1 kinase activity (33P trans-phosphorylation, Dowex resin). To be noted: 5 nM enzyme, 132 microM ATP, 30 microM peptide substrate; read-out: AKT1 IC50 (µM) Biochem assay. On the set-up: made in house. The protocol:
The N-terminal GST fusion proteins used for the assays were prepared according to the methods described in Kumar, C. C. Biochem. Biophys. ACTA 2001, 1526, 257-268, and in Alessi, D. R.. Biochem. J. 1998 331, 299-308.
The inhibitory activity of putative kinase inhibitors and the potency of selected compounds were determined using a trans-phosphorylation assay.
A specific substrate was incubated with the kinase in appropriate buffer conditions in the presence of ATP traced with ^33P-γ-ATP (gamma phosphate-labeled, Redivue™ Code Number AH9968, 1000-3000Ci/mmole, Amersham Biosciences Piscataway, NJ, USA), optimal cofactors and test compound.
At the end of the phosphorylation reaction, more than 98% cold and radioactive ATP were captured by an excess of Dowex ion exchange resin. The resin was allowed to settle to the bottom of reaction wells by gravity. Supernatant, containing substrate peptide, was subsequently withdrawn and transferred into a counting plate, and radioactivity (corresponding to phosphate incorporated into peptide) was evaluated by β-counting.
Kinase buffer was composed of 50 mM TRIS pH 7.5 containing10 mM MgCl2, 1 mM DTT, 3 microM Na3VO4, and 0.2 mg/mL BSA. 3X KB is buffer of the same composition and pH as KB, but with three times the concentration of each component. iii.Assay conditions (final concentrations) for AKT1.
The kinase assay was run with a final enzyme concentration of 5 nM, in the presence of 132 microM ATP, 0.88 nM ^33P-γ-ATP and 30 microM substrate, a carboxy-terminally biotinylated peptide of the following sequence: ARKRERTYSFGHHA-biotin. The peptide was obtained in batches of >95% peptide purity from PRIMM labs Inc. (Boston MA, USA).
The "test" mixture of 15 microL consisting of: • 1) 5 µl/well of 3x Enzyme mix (done in Kinase Buffer 3X), • 2) 5 µl/well of 3x substrate and ATP mix (done in ddH2O), together with ^33P-γ-ATP, • 3) 5 µl/well of 3x test compounds (diluted into ddH2O - 3% DMSO).
For % inhibition studies, dilution plates at 1 mM, 10 microM and 100 microM were prepared in 100% DMSO, then diluted to 3X final desired concentration (30, 3 and 0.3 microM) in ddH2O, 3% DMSO. A Multimek 96 (Beckman Coulter, Inc. 4300 N. Harbor Boulevard, P.O. Box 3100 Fullerton, CA 92834-3100 USA) was used for compound pipetting into test plates.
For IC50 determination, starting solutions of 30 microM compound in 3% DMSO were derived from 1 mM/100% DMSO stock solutions. These 30 microM starting solutions were used for generation of a further 9 serial 1/3 dilutions in ddH20, 3% DMSO, so as to generate a 10-point dilution curve at 3X the final assay concentration. Serial dilution was conducted in 96-well plates using a Biomek 2000 (Beckman Coulter) system. Dilution curves of 7 compounds/plate were prepared, and each plate also included a 10-point dilution curve of Staurosporine, as well as several negative and positive control wells.
384-well plates, V bottom (test plates) are prepared with 5 µl of the compound dilution (3X) and then placed onto a PlateTrak 12 robotized station (Perkin Elmer; the robot has one 384-tips pipetting head for starting the assay plus one 96-tips head for dispensing the resin) together with one reservoir for the Enzyme mix (3X) and one for the ATP mix (3X).
At the start of the run, the robot aspirates 5 µl of ATP mix, makes an air gap inside the tips (3 µl) and aspirates 5 µl of AKT mix. The following dispensation into the plates allows the kinase reaction to start upon 3 cycles of mixing, done by the robot itself.
The robot incubates the plates for 60 minutes at room temperature, and then stops the reaction by pipetting 70 µl of dowex resin suspension into the reaction mix. Three cycles of mixing are done immediately after the addition of the resin.
Another mixing cycle is performed after all the plates are stopped, this time using normal tips: the plates are then allowed to rest for about one hour in order to maximize ATP capture. […]

Chain of AKT1 (P31749 whole entry, the tested form may be a part): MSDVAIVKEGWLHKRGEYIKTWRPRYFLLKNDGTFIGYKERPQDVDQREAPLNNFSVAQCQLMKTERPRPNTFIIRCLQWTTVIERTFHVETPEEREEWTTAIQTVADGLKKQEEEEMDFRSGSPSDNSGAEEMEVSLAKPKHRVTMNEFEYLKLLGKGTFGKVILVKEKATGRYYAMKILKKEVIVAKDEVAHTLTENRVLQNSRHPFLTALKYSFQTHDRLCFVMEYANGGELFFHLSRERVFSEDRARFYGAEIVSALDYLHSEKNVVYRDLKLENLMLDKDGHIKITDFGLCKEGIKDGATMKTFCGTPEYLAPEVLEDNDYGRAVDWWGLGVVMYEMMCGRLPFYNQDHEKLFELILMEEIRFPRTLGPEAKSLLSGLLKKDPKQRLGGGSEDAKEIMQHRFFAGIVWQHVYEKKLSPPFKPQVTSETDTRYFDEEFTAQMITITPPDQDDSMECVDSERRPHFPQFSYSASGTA

As for `NC[C@H](Cc1ccccc1)NC(=O)C1=Cc2c[nH]c3nccc(c23)CC1` [Cpd. 1, N-[(1S)-2-amino-1-benzylethyl]-6,7-dihydro-2H-2,3-diazabenzo[cd]azulene-8-carboxamide], the IC50 came to 0.05 µM.
As to `CC(=O)N1CC(C(=O)N[C@H](CN)Cc2ccccc2)=Cc2c[nH]c3nccc1c23` [Cpd. 3, 6-acetyl-N-[(1S)-2-amino-1-benzylethyl]-6,7-dihydro-2H-2,3,6-triazabenzo[cd]azulene-8-carboxamide], the IC50 came to 0.184 µM.
As to `O=C(N[C@H](CN1CCCC1)c1ccccc1)C1=Cc2c[nH]c3nccc(c23)CC1` [Cpd. 6, N-[(1S)-1-phenyl-2-pyrrolidin-1-ylethyl]-6,7-dihydro-2H-2,3-diazabenzo[cd]azulene-8-carboxamide], the IC50 came to 0.121 µM.
The value for `NC[C@H](Cc1ccccc1)NC(=O)C1=Cc2c[nH]c3nccc(c23)NC1` [compound 2, N-[(1S)-2-amino-1-benzylethyl]-6,7-dihydro-2H-2,3,6-triazabenzo[cd]azulene-8-carboxamide] was 0.017 µM.

The record behind these values is patent EP2002836B1, “Cyclocondensed azaindoles active as kinase inhibitors” (Nerviano Medical Sciences S.r.l., priority 2007, dated 2008).
